Consider two compounds from article PMC10848004 (Saudi Pharmaceutical Journal : SPJ, 2024).

By IC50 is commonly meant the concentration needed to halve the response being measured.

Assay [1] has as its system glaucomatous rabbit eye model. The experiment in a line: Antiglaucoma activity in vivo, IOP lowering, topical. The following applies: 1 % concentration, at 1 h post-administration.
In a further assay the target is CYP2D6 (Homo sapiens, UniProt P10635). The experiment in a line: CYP inhibition in HLM, CYP2D6. Format: in vitro ADME.
Sequence of CYP2D6 (P10635 whole entry): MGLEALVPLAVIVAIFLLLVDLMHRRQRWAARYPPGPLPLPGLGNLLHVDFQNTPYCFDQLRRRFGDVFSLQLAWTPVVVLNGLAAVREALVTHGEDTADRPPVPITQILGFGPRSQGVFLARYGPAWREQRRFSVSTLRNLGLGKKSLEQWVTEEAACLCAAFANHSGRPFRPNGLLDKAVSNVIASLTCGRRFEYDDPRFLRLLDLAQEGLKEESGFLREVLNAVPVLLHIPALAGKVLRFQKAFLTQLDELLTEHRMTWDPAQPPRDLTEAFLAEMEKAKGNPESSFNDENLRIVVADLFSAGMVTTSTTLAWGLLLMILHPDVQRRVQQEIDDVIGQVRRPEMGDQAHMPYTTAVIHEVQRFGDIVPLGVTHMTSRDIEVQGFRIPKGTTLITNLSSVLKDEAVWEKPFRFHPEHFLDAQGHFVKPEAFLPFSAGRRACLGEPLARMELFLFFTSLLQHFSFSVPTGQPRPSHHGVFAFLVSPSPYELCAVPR

For `CCN[C@H]1CN(CCCOC)S(=O)(=O)c2sc(S(N)(=O)=O)cc21` [BRZ, brinzolamide], in assay [1], the “maximal intraocular pressure lowering effect” value was “around 5 mm Hg”.
`COc1ccc2c(c1)[C@]13CCCC[C@@H]1[C@H](C2)N(C)CC3` [Dextromethorphan]: the IC50 against CYP2D6 is 1340 nM.
